Source: patent US11884661B2, “3-substituted propionic acids as αV integrin inhibitors” (BRISTOL-MYERS SQUIBB COMPANY, priority 2016, dated 2024)
pIC50: −log10 of the molar value.

Target: T1, human αVβ6 (Homo sapiens, UniProt P06756+P18564)
T1 construct: purchased R & D systems 3817-AV
Test: human αVβ6 HTRF binding assay
Details: recombinant human αVβ6 integrin, FITC-conjugated fibronectin
Protocol: All binding assays used the HTRF (homogeneous time resolved fluorescence) technology from Cisbio International, therefore all assays are described as HTRF binding assays. The assay results for the Examples are listed above together with the characterization data. The HTRF binding assays are established for the following integrins: human αVβ6, human αVβ1, human αVβ3, human αVβ5, and human αVβ8. All assays used the following assay buffer: 20 mM Tris, pH 7.4, 1 mM MgCl2, 1 mM MnCl2, 0.01% Tween 20, and 0.01% BSA. Alternatively, a SPA-based assay was used for evaluation of receptor binding.
The following describes the components and a representative procedure for the human αVβ6 HTRF binding assay: Recombinant human αVβ6 Integrin (R & D systems, 3817-AV) was biotinylated. Biotinylated human αVβ6 Integrin was added to assay vessel at a final concentration of 1.25 nM. FITC-conjugated fibronectin (Cytoskeleton, FNR02) was then added at the final concentration of 5 nM. The mixture was centrifuged at 600 rpm for three minutes using Thermo Fisher Heraeus Multifuge X3 centrifuge and then incubated at RT for an hour. Streptavidin Terbium (Cisbio international 610STLB) was then added at the final concentration of 0.625 nM. The resulting mixture was centrifuged at 600 rpm for three minutes using Thermo Fisher Heraeus Multifuge X3 centrifuge and then incubated at room temperature overnight in dark before reading HTRF signals.

T1 sequence (P06756 31-992 limits assumed): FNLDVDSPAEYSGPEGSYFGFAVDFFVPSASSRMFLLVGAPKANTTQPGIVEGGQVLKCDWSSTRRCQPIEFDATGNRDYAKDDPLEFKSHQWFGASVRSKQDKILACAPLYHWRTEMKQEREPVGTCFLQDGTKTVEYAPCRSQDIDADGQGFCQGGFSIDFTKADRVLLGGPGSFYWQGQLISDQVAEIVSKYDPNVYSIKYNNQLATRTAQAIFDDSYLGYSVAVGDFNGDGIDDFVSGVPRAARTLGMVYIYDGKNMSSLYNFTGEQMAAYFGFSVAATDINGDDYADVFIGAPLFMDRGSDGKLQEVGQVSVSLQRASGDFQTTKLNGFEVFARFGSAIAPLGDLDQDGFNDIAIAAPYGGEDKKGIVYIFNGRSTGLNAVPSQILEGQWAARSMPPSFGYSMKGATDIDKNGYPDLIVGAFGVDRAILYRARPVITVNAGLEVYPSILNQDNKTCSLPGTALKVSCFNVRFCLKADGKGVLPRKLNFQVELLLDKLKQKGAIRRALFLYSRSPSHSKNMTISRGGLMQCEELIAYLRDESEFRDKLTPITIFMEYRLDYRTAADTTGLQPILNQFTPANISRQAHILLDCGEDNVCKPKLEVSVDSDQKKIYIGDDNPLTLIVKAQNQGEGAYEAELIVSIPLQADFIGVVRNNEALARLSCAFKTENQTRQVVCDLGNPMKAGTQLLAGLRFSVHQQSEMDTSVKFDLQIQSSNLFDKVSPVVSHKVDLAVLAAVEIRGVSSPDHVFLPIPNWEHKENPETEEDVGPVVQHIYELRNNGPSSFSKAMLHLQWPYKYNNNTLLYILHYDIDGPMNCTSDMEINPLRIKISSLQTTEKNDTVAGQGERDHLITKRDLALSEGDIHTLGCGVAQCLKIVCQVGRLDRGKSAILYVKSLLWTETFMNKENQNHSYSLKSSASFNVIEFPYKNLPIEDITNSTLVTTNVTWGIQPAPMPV
T1 sequence (P18564 22-707 limits assumed): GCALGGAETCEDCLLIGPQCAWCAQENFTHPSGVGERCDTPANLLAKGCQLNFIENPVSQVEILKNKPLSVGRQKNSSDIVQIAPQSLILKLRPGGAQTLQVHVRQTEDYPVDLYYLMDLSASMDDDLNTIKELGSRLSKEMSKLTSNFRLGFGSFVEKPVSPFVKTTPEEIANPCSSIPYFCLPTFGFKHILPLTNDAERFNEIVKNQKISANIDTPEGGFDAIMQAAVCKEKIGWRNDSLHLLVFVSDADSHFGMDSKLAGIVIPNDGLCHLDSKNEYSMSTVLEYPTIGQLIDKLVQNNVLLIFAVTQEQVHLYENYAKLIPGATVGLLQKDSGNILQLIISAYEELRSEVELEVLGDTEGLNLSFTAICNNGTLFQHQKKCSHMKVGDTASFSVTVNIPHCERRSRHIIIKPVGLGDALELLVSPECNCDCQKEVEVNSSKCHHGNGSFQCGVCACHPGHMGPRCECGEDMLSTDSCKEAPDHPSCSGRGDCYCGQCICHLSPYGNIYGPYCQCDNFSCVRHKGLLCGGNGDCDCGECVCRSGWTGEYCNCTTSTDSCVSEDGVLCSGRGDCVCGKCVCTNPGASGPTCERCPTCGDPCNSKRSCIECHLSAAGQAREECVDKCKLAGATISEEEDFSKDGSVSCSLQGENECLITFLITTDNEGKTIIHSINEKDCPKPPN

Row | pIC50 | Structure (SMILES)
1 | 6.67 | COc1ccc([C@@H](CC(=O)O)c2cnn(CCCc3ccc4c(n3)NCCC4)c2)cn1 [Example 9, (R)-3-(6-Methoxypyridin-3-yl)-3-(1-(3-(5,6,7,8-tetrahydro-1,8-naphthyridin-2-yl)propyl)-1H-pyrazol-4-yl)propanoic acid]
2 | 8.15 | CCOc1ncc([C@H](CC(=O)O)n2ccc(CCCc3ccc4c(n3)NCCC4)n2)cn1 [Example 56, (S)-3-(2-Ethoxypyrimidin-5-yl)-3-(3-(3-(5,6,7,8-tetrahydro-1,8-naphthyridin-2-yl)propyl)-1H-pyrazol-1-yl)propanoic acid]
3 | 6.64 | O=C(O)CC(c1cncc(N2CCOCC2)c1)n1nccc1CCCc1ccc2c(n1)NCCC2 (single isomer, unassigned) [Example 95, 3-(5-morpholinopyridin-3-yl)-3-(5-(3-(5,6,7,8-tetrahydro-1,8-naphthyridin-2-yl)propyl)-1H-pyrazol-1-yl)propanoic acid]
4 | 6.96 | COc1cnc(C(CC(=O)O)n2ccc(CCCc3ccc4c(n3)NCCC4)n2)cn1 (racemic) [Example 59, (±)-3-(5-Methoxypyrazin-2-yl)-3-(3-(3-(5,6,7,8-tetrahydro-1,8-naphthyridin-2-yl)propyl)-1H-pyrazol-1-yl)propanoic acid]
5 | 6.74 | O=C(O)CC(c1cccc(N2CCOCC2)c1)c1nc(CCCCc2ccc3c(n2)NCCC3)cs1 (single isomer, unassigned) [Example 125, 3-(3-morpholinophenyl)-3-(4-(4-(5,6,7,8-tetrahydro-1,8-naphthyridin-2-yl)butyl)thiazol-2-yl)propanoic acid]
6 | 8.17 | COc1ccc(C(CC(=O)O)c2ncc(CCCCc3ccc4c(n3)NCCC4)s2)cn1 (single isomer, unassigned) [Example 18, 3-(6-Methoxypyridin-3-yl)-3-(5-(4-(5,6,7,8-tetrahydro-1,8-naphthyridin-2-yl)butyl)thiazol-2-yl)propanoic acid]
7 | 7.28 | O=C(O)C[C@@H](c1cnc(O)nc1)n1ccc(CCCc2ccc3c(n2)NCCC3)n1 [Example 85, (S)-3-(2-hydroxypyrimidin-5-yl)-3-(3-(3-(5,6,7,8-tetrahydro-1,8-naphthyridin-2-yl)propyl)-1H-pyrazol-1-yl)propanoic acid]
8 | 6.66 | Cc1cc(C)n(C(CC(=O)O)c2nc(CCCc3ccc4c(n3)NCCC4)cs2)n1 (single isomer, unassigned) [Example 163, 3-(3,5-dimethyl-1H-pyrazol-1-yl)-3-(4-(3-(5,6,7,8-tetrahydro-1,8-naphthyridin-2-yl)propyl)thiazol-2-yl)propanoic acid]
9 | 8.15 | COc1ccc(C(CC(=O)O)c2nc(CCCC3CCc4cccnc4N3)cs2)cc1F (single isomer, unassigned) [Example 158, 3-(3-fluoro-4-methoxyphenyl)-3-(4-(3-(1,2,3,4-tetrahydro-1,8-naphthyridin-2-yl)propyl)thiazol-2-yl)propanoic acid]
10 | 7.44 | COc1ccc(C(CC(=O)O)c2nc(CCCc3ccc4c(n3)NCCC4)cs2)cn1 (single isomer, unassigned) [Example 16, 3-(6-Methoxypyridin-3-yl)-3-(4-(3-(5,6,7,8-tetrahydro-1,8-naphthyridin-2-yl)propyl)thiazol-2-yl)propanoic acid]
11 | 7.19 | COc1ccc(C(CC(=O)O)c2cnn(CCCCc3ccc4c(n3)NCCC4)c2)cc1F (stereo not shown) [Example 44, 3-(3-fluoro-4-methoxyphenyl)-3-(1-(4-(5,6,7,8-tetrahydro-1,8-naphthyridin-2-yl)butyl)-1H-pyrazol-4-yl)propanoic acid]
12 | 7.57 | O=C(O)CC(c1cc(Cl)cc(Cl)c1)c1cnn(CCCc2ccc3c(n2)NCCC3)c1 (racemic) [Example 26, (±)-3-(3,5-Dichlorophenyl)-3-(1-(3-(5,6,7,8-tetrahydro-1,8-naphthyridin-2-yl)propyl)-1H-pyrazol-4-yl)propanoic acid]
13 | 6.77 | Cc1ncc([C@H](CC(=O)O)n2ccc(CCC[C@@H]3CCc4cccnc4N3)n2)cn1 [Example 88, (S)-3-(2-methylpyrimidin-5-yl)-3-(3-(3-((R)-1,2,3,4-tetrahydro-1,8-naphthyridin-2-yl)propyl)-1H-pyrazol-1-yl)propanoic acid]
14 | 8.00 | COc1ncc(C(CC(=O)O)n2ccc(CCCc3ccc4c(n3)NCCCC4)n2)cn1 (single isomer, unassigned) [Example 104, 3-(2-methoxypyrimidin-5-yl)-3-(3-(3-(6,7,8,9-tetrahydro-5H-pyrido[2,3-b]azepin-2-yl)propyl)-1H-pyrazol-1-yl)propanoic acid]
15 | 6.93 | COc1ccc(C(CC(=O)O)c2cnn(CCCc3ccc4c(n3)NCCC4)c2)cc1F (racemic) [Example 24, (±)-3-(3-Fluoro-4-methoxyphenyl)-3-(1-(3-(5,6,7,8-tetrahydro-1,8-naphthyridin-2-yl)propyl)-1H-pyrazol-4-yl)propanoic acid]
16 | 5.99 | COc1ncc(C(CC(=O)O)n2nccc2CCC[C@@H]2CCc3cccnc3N2)cn1 (mixture of isomers) [Example 93, 3-(2-methoxypyrimidin-5-yl)-3-(5-(3-((R)-1,2,3,4-tetrahydro-1,8-naphthyridin-2-yl)propyl)-1H-pyrazol-1-yl)propanoic acid]
17 | 6.21 | COc1ccc(C(CC(=O)O)n2ncc(CCCc3ccc4c(n3)NCCC4)n2)cn1 (single isomer, unassigned) [Example 170, 3-(6-methoxypyridin-3-yl)-3-(4-(3-(5,6,7,8-tetrahydro-1,8-naphthyridin-2-yl)propyl)-2H-1,2,3-triazol-2-yl)propanoic acid]
18 | 7.00 | COc1ccc(C(CC(=O)O)c2cnn(CCCCc3ccc4c(n3)NCCC4)c2)cn1 (racemic) [Example 11, (±)-3-(6-Methoxypyridin-3-yl)-3-(1-(4-(5,6,7,8-tetrahydro-1,8-naphthyridin-2-yl)butyl)-1H-pyrazol-4-yl)propanoic acid]
19 | 6.68 | O=C(O)CC(c1cncc(N2CCOCC2)c1)n1ccc(CCCc2ccc3c(n2)NCCC3)n1 (single isomer, unassigned) [Example 67, 3-[5-(morpholin-4-yl)pyridin-3-yl]-3-{3-[3-(5,6,7,8-tetrahydro-1,8-naphthyridin-2-yl)propyl]-1H-pyrazol-1-yl}propanoic acid]
20 | 7.82 | Cc1cncc(C(CC(=O)O)n2ccc(CCCc3ccc4c(n3)NCCC4)n2)c1 (single isomer, unassigned) [Example 69, 3-(5-methylpyridin-3-yl)-3-{3-[3-(5,6,7,8-tetrahydro-1,8-naphthyridin-2-yl)propyl]-1H-pyrazol-1-yl}propanoic acid]
21 | 7.51 | O=C(O)C[C@@H](c1ccc(O)nc1)n1ccc(CCCc2ccc3c(n2)NCCC3)n1 [Example 12, (S)-3-(6-Hydroxypyridin-3-yl)-3-(3-(3-(5,6,7,8-tetrahydro-1,8-naphthyridin-2-yl)propyl)-1H-pyrazol-1-yl)propanoic acid]
22 | 8.31 | CN(C)C(=O)c1ccc(C(CC(=O)O)c2nc(CCCc3ccc4c(n3)NCCC4)cs2)cc1F (single isomer, unassigned) [Example 135, 3-(4-(dimethylcarbamoyl)-3-fluorophenyl)-3-(4-(3-(5,6,7,8-tetrahydro-1,8-naphthyridin-2-yl)propyl)thiazol-2-yl)propanoic acid]
23 | 8.74 | CN(C)c1ccc(C(CC(=O)O)c2nc(CCCc3ccc4c(n3)NCCC4)cs2)cn1 (single isomer, unassigned) [Example 134, 3-(6-(dimethylamino)pyridin-3-yl)-3-(4-(3-(5,6,7,8-tetrahydro-1,8-naphthyridin-2-yl)propyl)thiazol-2-yl)propanoic acid]
24 | 7.19 | Cc1ncc(C(CC(=O)O)n2ccc(CCCc3ccc4c(n3)NCCC4)n2)cn1 (racemic) [Example 22, (±)-3-(2-Methylpyrimidin-5-yl)-3-(3-(3-(5,6,7,8-tetrahydro-1,8-naphthyridin-2-yl)propyl)-1H-pyrazol-1-yl)propanoic acid]
25 | 6.32 | CCOc1ncc([C@@H](CC(=O)O)n2ccc(CCCc3ccc4c(n3)NCCC4)n2)cn1 [Example 81, (R)-3-(2-ethoxypyrimidin-5-yl)-3-(3-(3-(5,6,7,8-tetrahydro-1,8-naphthyridin-2-yl)propyl)-1H-pyrazol-1-yl)propanoic acid]
26 | 7.74 | COc1ncc(C(CC(=O)O)n2nccc2CCCc2ccc3c(n2)NCCC3)cc1F (racemic) [Example 77, (±)-3-(5-fluoro-6-methoxypyridin-3-yl)-3-{5-[3-(5,6,7,8-tetrahydro-1,8-naphthyridin-2-yl)propyl]-1H-pyrazol-1-yl}propanoic acid]
27 | 7.72 | O=C(O)C[C@@H](c1ccc(=O)n(CC2CC2)c1)n1ccc(CCCc2ccc3c(n2)NCCC3)n1 [Example 111, (S)-3-(1-(cyclopropylmethyl)-6-oxo-1,6-dihydropyridin-3-yl)-3-(3-(3-(5,6,7,8-tetrahydro-1,8-naphthyridin-2-yl)propyl)-1H-pyrazol-1-yl)propanoic acid]
28 | 7.06 | COc1ncc(C(CC(=O)O)c2nc(CCCCc3ccc4c(n3)NCCC4)cs2)cn1 (single isomer, unassigned) [Example 143, 3-(2-Methoxypyrimidin-5-yl)-3-(4-(4-(5,6,7,8-tetrahydro-1,8-naphthyridin-2-yl)butyl)thiazol-2-yl)propanoic acid]
